# Data taken from US10335392B2, “Cyclic compounds useful as modulators of TNF α” (BRISTOL-MYERS SQUIBB COMPANY, priority 2015, dated 2019).
# Molecular target: TNFα (Homo sapiens (Human), UniProt P01375)
# Experiment: TNF induced HEK-Blue assay
# Format: cell-based
# Conditions: TNFα 0.5 ng/ml; HEK-Blue-CD40L cells, NF-kB-driven secreted alkaline phosphatase reporter; 18 h
# Procedure: TNF or CD40L-Induced HEK-Blue Assay
# Test compounds serially diluted in DMSO were plated in an assay plate (LABCYTE, Cat. # LP-0200) at final concentrations ranging from 0.004 μM to 25 μM. TNFα (final concentration 0.5 ng/ml) or CD40L (final concentration 30 ng/ml) in assay buffer [DMEM, 4.5 g/l glucose (Gibco, Cat. 21063-029), 10% FBS (Sigma, F4135), 1% Penicillin-Streptomycin (Gibco, Cat. 15140-122), 1% Anti-Anti (Gibco, Cat. 15240-112) and 2 mM L-glutamine (Gibco, Cat. 25030-081)] was then added to the assay plate. After a 30 minute pre-incubation at 37° C. and 5% CO2, HEK-Blue™-CD40L cells (INVIVOGEN, Cat. Code hkb-cd40) containing a NF-kB-driven secreted alkaline phosphatase reporter gene were seeded into the assay plate at a density of 20,000 cells per well. This plate was then incubated for 18 h at 37° C. and 5% CO2. Secreted alkaline phosphatase expression was measured using QUANTI-Blue™ (INVIVOGEN, Cat. Code rep-qb1) according to manufacturer's specifications and the assay plate was read on a PerkinElmer Envision at 620 nm.
# Inhibition data for the test compound over a range of concentrations was plotted as percentage inhibition of the test compound (100%=maximum inhibition). IC50 values were determined after correcting for background [(sample read−mean of low control)/(mean of high control−mean of low control)] where by the low control is DMSO without stimulation and high control is DMSO with stimulation. The IC50 is defined as the concentration of test compound which produces 50% inhibition and was quantified using the 4 parameter logistic equation to fit the data.
# TNFα, sequence (P01375 77-233): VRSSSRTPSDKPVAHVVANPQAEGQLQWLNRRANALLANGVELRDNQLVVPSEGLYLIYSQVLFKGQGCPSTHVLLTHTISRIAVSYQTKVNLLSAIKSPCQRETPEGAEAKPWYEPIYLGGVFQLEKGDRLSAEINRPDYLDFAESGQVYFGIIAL
row,SMILES,IC50
1,"CNC(=O)c1ccc(-c2cc3c(cc2F)nc2n3[C@@H](c3ccccc3OC(F)F)[C@H]3C[C@@H]23)cn1 [Example 8, 5-((1aR,8R,8aS)-8-(2-(difluoromethoxy)phenyl)-4-fluoro-1,1a,8,8a-tetrahydrobenzo[d]cyclopropa[3,4]pyrrolo[1,2-a]imidazol-5-yl)-N-methylpicolinamide]",1000 to 10000 nM
2,"O=C1CN(c2ncc(-c3cc4c(cc3F)nc3n4[C@@H](c4ccccc4OC(F)F)[C@H]4C[C@@H]34)cn2)CCN1 [Example 9, 4-(5-((1aR,8R,8aS)-8-(2-(difluoromethoxy)phenyl)-4-fluoro-1,1a,8,8a-tetrahydrobenzo[d]cyclopropa[3,4]pyrrolo[1,2-a]imidazol-5-yl)pyrimidin-2-yl)piperazin-2-one]",< 1000 nM
3,"N#Cc1ccc(-c2cc3c(cc2F)nc2n3[C@@H](c3ccccc3OC(F)F)[C@H]3C[C@@H]23)cn1 [Example 10, 5-((1aR,8R,8aS)-8-(2-(difluoromethoxy)phenyl)-4-fluoro-1,1a,8,8a-tetrahydrobenzo[d]cyclopropa[3,4]pyrrolo[1,2-a]imidazol-5-yl)picolinonitrile]",1000 to 10000 nM
4,"CC(C)(O)c1ccc(-c2cc3c(cc2F)nc2n3[C@@H](c3ccccc3OC(F)F)[C@H]3C[C@@H]23)cc1 [Example 12, 2-(4-((1aR,8R,8aS)-8-(2-(difluoromethoxy)phenyl)-4-fluoro-1,1a,8,8a-tetrahydrobenzo[d]cyclopropa[3,4]pyrrolo[1,2-a]imidazol-5-yl)phenyl)propan-2-ol]",< 1000 nM
5,"CC(C)(O)c1ccc(-c2cc3c(cc2F)nc2n3[C@@H](c3ccccc3OC(F)F)[C@H]3C[C@@H]23)cn1 [Example 13, 2-(5-((1aR,8R,8aS)-8-(2-(difluoromethoxy)phenyl)-4-fluoro-1,1a,8,8a-tetrahydrobenzo[d]cyclopropa[3,4]pyrrolo[1,2-a]imidazol-5-yl)pyridin-2-yl)propan-2-ol]",< 1000 nM
6,"OC1(c2ncc(-c3cc4c(cc3F)nc3n4[C@@H](c4ccccc4OC(F)F)[C@H]4C[C@@H]34)cn2)COC1 [Example 14, 3-(5-((1aR,8R,8aS)-8-(2-(difluoromethoxy)phenyl)-4-fluoro-1,1a,8,8a-tetrahydrobenzo[d]cyclopropa[3,4]pyrrolo[1,2-a]imidazol-5-yl)pyrimidin-2-yl)oxetan-3-ol]",< 1000 nM
7,"O=S1(=O)CCN(c2ncc(-c3cc4c(cc3F)nc3n4[C@@H](c4ccccc4OC(F)F)[C@H]4C[C@@H]34)cn2)CC1 [Example 15, 4-(5-((1aR,8R,8aS)-8-(2-(difluoromethoxy)phenyl)-4-fluoro-1,1a,8,8a-tetrahydrobenzo[d]cyclopropa[3,4]pyrrolo[1,2-a]imidazol-5-yl)pyrimidin-2-yl) thiomorpholine 1,1-dioxide]",< 1000 nM
8,"CC(C)(O)Cn1cc(-c2cc3c(cc2F)nc2n3[C@@H](c3ccccc3OC(F)F)[C@H]3C[C@@H]23)cn1 [Example 16, 1-(4-((1aR,8R,8aS)-8-(2-(difluoromethoxy)phenyl)-4-fluoro-1,1a,8,8a-tetrahydrobenzo[d]cyclopropa[3,4]pyrrolo[1,2-a]imidazol-5-yl)-1H-pyrazol-1-yl)-2-methylpropan-2-ol]",1000 to 10000 nM
9,"CC(C)(C)OC(=O)N1CC=C(c2cc3c(cc2F)nc2n3[C@@H](c3ccccc3OC(F)F)[C@H]3C[C@@H]23)CC1 [Example 17, tert-butyl 4-((1aR,8R,8aS)-8-(2-(difluoromethoxy)phenyl)-4-fluoro-1,1a,8,8a-tetrahydrobenzo[d]cyclopropa[3,4]pyrrolo[1,2-a]imidazol-5-yl)-3,6-dihydropyridine-1(2H)-carboxylate]",1000 to 10000 nM
10,"O=C(O)CN1CCN(c2ncc(-c3cc4c(cc3F)nc3n4[C@H](c4ccccc4OC(F)F)[C@@H]4C[C@H]34)cn2)CC1 [Example 18, 2-(4-(5-((1aS,8S,8aR)-8-(2-(difluoromethoxy)phenyl)-4-fluoro-1,1a,8,8a-tetrahydrobenzo[d]cyclopropa[3,4]pyrrolo[1,2-a]imidazol-5-yl)pyrimidin-2-yl)piperazin-1-yl)acetic acid]",< 1000 nM
11,"NC(=O)c1ccc(-c2cc3c(cc2F)nc2n3[C@H](c3ccccc3OC(F)F)[C@@H]3C[C@H]23)cn1 [Example 19, 5-((1aS,8S,8aR)-8-(2-(difluoromethoxy)phenyl)-4-fluoro-1,1a,8,8a-tetrahydrobenzo[d]cyclopropa[3,4]pyrrolo[1,2-a]imidazol-5-yl)picolinamide]",1000 to 10000 nM
12,"NC(=O)c1ccc(-c2cc3c(cc2F)nc2n3[C@@H](c3ccccc3OC(F)F)[C@@H]3C[C@H]23)cn1 [Example 22, 5-((1aS,8R,8aR)-8-(2-(difluoromethoxy)phenyl)-4-fluoro-1,11a,8,8a-tetrahydrobenzo[d]cyclopropa[3,4]pyrrolo[1,2-a]imidazol-5-yl)picolinamide]",< 1000 nM
13,"CC(C)(O)c1ncc(-c2cc3c(cc2F)nc2n3[C@@H](c3ccccc3Oc3ccccc3)[C@@H]3C[C@H]23)cn1 [Example 27, 2-(5-((1aS,8R,8aR)-4-fluoro-8-(2-phenoxyphenyl)-1,1a,8,8a-tetrahydrobenzo[d]cyclopropa[3,4]pyrrolo[1,2-a]imidazol-5-yl)pyrimidin-2-yl)propan-2-ol]",1000 to 10000 nM
14,"CC(C)(O)c1ncc(-c2cc3c(cc2F)nc2n3[C@H](c3ccccc3Oc3ccccc3)[C@@H]3C[C@H]23)cn1 [Example 28, 2-(5-((1aS,8S,8aR)-4-fluoro-8-(2-phenoxyphenyl)-1,1a,8,8a-tetrahydrobenzo[d]cyclopropa[3,4]pyrrolo[1,2-a]imidazol-5-yl)pyrimidin-2-yl)propan-2-ol]",1000 to 10000 nM
15,"CC(C)(O)c1ncc(-c2cc3c(cc2F)nc2n3[C@@H](c3ccccc3Oc3ccccc3F)[C@@H]3C[C@H]23)cn1 [Example 29, 2-(5-((1aS,8R,8aR)-4-fluoro-8-(2-(2-fluorophenoxy)phenyl)-1,1a,8,8a-tetrahydrobenzo[d]cyclopropa[3,4]pyrrolo[1,2-a]imidazol-5-yl)pyrimidin-2-yl)propan-2-ol]",1000 to 10000 nM
16,"CC(C)(O)c1ncc(-c2cc3c(cc2F)nc2n3[C@H](c3ccccc3Oc3ccccc3F)[C@@H]3C[C@H]23)cn1 [Example 30, 2-(5-((1aS,8S,8aR)-4-fluoro-8-(2-(2-fluorophenoxy)phenyl)-1,1a,8,8a-tetrahydrobenzo[d]cyclopropa[3,4]pyrrolo[1,2-a]imidazol-5-yl)pyrimidin-2-yl)propan-2-ol]",10000 to 25000 nM
17,"Fc1cc2nc3n(c2cc1-c1cnc(N2CCOCC2)nc1)[C@@H](c1ccccc1OC(F)F)[C@@H]1C[C@H]31 [Example 31, 4-(5-((1aS,8R,8aR)-8-(2-(difluoromethoxy)phenyl)-4-fluoro-1,1a,8,8a-tetrahydrobenzo[d]cyclopropa[3,4]pyrrolo[1,2-a]imidazol-5-yl)pyrimidin-2-yl) morpholine]",< 1000 nM
18,"Fc1cc2nc3n(c2cc1-c1cnc(N2CCOCC2)nc1)[C@H](c1ccccc1OC(F)F)[C@@H]1C[C@H]31 [Example 32, 4-(5-((1aS,8S,8aR)-8-(2-(difluoromethoxy)phenyl)-4-fluoro-1,1a,8,8a-tetrahydrobenzo[d]cyclopropa[3,4]pyrrolo[1,2-a]imidazol-5-yl)pyrimidin-2-yl) morpholine]",1000 to 10000 nM
